pKi: −log10 of the molar value. Structures can show the parent of a compound that is named as a salt.
Biological target: Glutamate receptor ionotropic, NMDA 1 (Rattus norvegicus, UniProt P35439)

Compound | pKi
OC(CN1CCC(Cc2ccc(F)cc2)CC1)c1ccc(Cl)cc1 (stereo unspecified) | 6.52
C[C@@H](CN1CCC(Cc2ccccc2)CC1)[C@@H](O)c1ccc(O)cc1 | 8.22
COc1cc2c(cc1O)C(CCc1ccc(Cl)cc1)N(C)CC2 (stereo unspecified) [Ro 04-5595] | 7.70

Second part, the compound after the results:

pKi | Compound
8.10 | C[C@@H]([C@@H](O)c1ccc(O)cc1)N1CCC(O)(c2ccccc2)CC1 [1-[(1S,2S)-2-Hydroxy-2-(4-hydroxy-phenyl)-1-methyl-ethyl]-4-phenyl-piperidin-4-ol]
5.70 | NCCCNCCCCNCCCN [N,N''-bis(3-azanylpropyl)butane-1,4-diamine;hydrochloride]
< 5.00 | NCCCCNCCCN [spermidine]

Source: BindingDB's records for doi:10.1046/j.1471-4159.1998.70052147.x (F. Hoffmann-La Roche, 1998)
